Source: patent publication US20140005163A1 (NOVARTIS AG, priority 2010, published 2014)
Converted amounts (≈) assume the structure as drawn. Like-named read-outs stand apart in the source and are kept apart here.

Legend:
Solubility at pH 6.8 = type: physicochemical
Excerpt: The physicochemical properties of relevance for the absorption of the compound, such as the solubility and the membrane permeability, especially at a pH close to neutral pH can be measured using the procedure as described by L. ZHOU et al. in JOURNAL OF PHARMACEUTICAL SCIENCES, VOL. 96, NO. 11, p. 3052-3071 (2007) for the solubility at pH 6.8 and the procedure as described by F. Wohnsland and B. Faller in Journal of Medicinal Chemistry Vol 44, p. 923-930 (2001) for the Parallel Artificial Membrane Permeability Assay (PAMPA) at pH 6.8.

PI3K alpha = biological target: T1, PI3K alpha (Homo sapiens, UniProt P42336); experiment: PI3K alpha kinase assay (Kinase-Glo luminescence); type: biochemical
T1 construct: p85(iSH2) fusion partner (see partner chain) (N); His tag (C); made in house; host or cells: baculovirus; Tn5 (Trichoplusia ni) or TiniPro insect cells
T1 sequence (P42336 with tags, fused parts or gaps limits assumed): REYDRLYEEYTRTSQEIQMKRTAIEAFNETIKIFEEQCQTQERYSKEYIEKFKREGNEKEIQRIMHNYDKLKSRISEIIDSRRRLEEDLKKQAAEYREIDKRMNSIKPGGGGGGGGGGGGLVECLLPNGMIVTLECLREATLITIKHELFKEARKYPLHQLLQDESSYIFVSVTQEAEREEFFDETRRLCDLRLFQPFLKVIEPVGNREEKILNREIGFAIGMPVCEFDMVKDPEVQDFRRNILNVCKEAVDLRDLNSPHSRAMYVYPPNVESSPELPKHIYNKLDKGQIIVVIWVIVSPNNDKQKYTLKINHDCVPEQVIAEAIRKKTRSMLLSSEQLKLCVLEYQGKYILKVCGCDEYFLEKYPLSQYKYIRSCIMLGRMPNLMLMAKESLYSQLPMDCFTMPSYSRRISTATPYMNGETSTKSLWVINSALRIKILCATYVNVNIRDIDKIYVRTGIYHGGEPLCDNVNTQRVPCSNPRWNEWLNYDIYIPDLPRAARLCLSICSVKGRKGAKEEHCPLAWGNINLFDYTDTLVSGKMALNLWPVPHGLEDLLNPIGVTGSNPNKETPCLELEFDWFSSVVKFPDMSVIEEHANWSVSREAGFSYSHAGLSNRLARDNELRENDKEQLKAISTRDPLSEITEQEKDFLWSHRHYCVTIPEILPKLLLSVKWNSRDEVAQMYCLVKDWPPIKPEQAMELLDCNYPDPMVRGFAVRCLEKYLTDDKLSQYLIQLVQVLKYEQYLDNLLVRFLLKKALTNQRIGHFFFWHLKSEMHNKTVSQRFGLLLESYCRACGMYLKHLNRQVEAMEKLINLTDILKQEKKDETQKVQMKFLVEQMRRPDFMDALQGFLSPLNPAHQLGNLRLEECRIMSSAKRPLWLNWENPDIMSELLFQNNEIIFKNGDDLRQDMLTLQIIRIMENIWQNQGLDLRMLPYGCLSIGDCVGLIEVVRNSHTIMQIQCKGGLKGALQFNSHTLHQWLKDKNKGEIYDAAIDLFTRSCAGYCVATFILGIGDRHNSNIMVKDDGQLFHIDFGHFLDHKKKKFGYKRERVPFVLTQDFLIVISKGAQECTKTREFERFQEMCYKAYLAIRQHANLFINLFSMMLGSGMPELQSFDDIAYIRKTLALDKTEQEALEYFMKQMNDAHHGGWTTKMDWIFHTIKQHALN
In short: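 Read-out: Kinase-Glo luminescence of ATP left after 60 min at room temperature. Conditions: 10 nM PI3Kα (EMV B1075), 1 μM ATP, 10 μg/mL PI substrate, Tris pH 7.5 buffer with MgCl2, NaCl, CHAPS and DTT. IC50s fitted with a four-parameter logistic model.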

PI3K delta = biological target: T2, PI3K delta (Homo sapiens, UniProt O00329); experiment: PI3K delta kinase assay (Kinase-Glo luminescence); type: biochemical
T2 construct: for the full-length p110-d subunit are generated and fused by overlapping PCR; p85(iSH2) fusion partner (see partner chain) (N); His tag (C); made in house; host or cells: baculovirus; Tn5 (Trichoplusia ni) or TiniPro insect cells
T2 sequence (O00329 with tags, fused parts or gaps limits assumed): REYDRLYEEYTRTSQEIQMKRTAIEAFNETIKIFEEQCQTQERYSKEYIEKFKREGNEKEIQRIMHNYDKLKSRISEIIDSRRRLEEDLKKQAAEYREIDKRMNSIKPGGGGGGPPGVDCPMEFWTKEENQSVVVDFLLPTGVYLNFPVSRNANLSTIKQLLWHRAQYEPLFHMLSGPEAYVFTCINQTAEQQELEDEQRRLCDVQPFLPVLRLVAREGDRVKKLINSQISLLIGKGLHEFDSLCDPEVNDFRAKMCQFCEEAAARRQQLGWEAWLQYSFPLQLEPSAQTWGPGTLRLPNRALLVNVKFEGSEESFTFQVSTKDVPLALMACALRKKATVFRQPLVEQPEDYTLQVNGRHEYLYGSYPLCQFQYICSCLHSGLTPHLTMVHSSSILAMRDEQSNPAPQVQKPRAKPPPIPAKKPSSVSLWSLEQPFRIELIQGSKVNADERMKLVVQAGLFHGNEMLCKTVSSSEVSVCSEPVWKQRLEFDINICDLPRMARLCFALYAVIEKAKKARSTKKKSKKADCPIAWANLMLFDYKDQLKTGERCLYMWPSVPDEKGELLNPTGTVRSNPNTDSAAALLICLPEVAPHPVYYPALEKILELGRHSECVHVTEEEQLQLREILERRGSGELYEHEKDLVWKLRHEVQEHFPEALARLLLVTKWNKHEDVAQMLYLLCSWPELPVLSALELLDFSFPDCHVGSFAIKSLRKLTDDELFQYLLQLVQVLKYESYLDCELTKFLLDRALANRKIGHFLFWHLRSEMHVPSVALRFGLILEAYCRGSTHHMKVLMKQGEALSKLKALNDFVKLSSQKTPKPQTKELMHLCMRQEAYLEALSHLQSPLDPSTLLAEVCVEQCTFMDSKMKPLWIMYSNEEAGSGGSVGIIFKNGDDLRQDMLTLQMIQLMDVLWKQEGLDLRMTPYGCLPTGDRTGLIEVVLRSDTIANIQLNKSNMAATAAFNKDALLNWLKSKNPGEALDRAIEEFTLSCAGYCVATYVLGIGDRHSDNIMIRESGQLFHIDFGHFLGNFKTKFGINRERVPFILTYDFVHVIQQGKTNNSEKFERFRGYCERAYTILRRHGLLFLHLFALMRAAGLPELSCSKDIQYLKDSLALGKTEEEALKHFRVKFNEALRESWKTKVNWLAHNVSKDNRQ
In short: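 Kinase-Glo luminescence read-out of ATP remaining after 60 min at RT. Enzyme: 10 nM BV1060 (p85 iSH2–p110δ fusion, His-tagged); substrate 10 μg/mL PI, ATP 1 μM final; Tris pH 7.5 buffer with MgCl2, NaCl, CHAPS, DTT. IC50 from 4-parameter logistic fit over 8 concentrations.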

mTOR = biological target: T3, mTOR (Homo sapiens, UniProt P42345); experiment: Biochemical assay for m-TOR by TR-FRET; conditions: 8 μM ATP, 400 nM GFP-4EBP1, 0.5 nM mTOR
T3 construct: purchased Invitrogen Corporation (Carlsbad/CA, USA) PV4753
T3 sequence (P42345 1360-2549 limits assumed): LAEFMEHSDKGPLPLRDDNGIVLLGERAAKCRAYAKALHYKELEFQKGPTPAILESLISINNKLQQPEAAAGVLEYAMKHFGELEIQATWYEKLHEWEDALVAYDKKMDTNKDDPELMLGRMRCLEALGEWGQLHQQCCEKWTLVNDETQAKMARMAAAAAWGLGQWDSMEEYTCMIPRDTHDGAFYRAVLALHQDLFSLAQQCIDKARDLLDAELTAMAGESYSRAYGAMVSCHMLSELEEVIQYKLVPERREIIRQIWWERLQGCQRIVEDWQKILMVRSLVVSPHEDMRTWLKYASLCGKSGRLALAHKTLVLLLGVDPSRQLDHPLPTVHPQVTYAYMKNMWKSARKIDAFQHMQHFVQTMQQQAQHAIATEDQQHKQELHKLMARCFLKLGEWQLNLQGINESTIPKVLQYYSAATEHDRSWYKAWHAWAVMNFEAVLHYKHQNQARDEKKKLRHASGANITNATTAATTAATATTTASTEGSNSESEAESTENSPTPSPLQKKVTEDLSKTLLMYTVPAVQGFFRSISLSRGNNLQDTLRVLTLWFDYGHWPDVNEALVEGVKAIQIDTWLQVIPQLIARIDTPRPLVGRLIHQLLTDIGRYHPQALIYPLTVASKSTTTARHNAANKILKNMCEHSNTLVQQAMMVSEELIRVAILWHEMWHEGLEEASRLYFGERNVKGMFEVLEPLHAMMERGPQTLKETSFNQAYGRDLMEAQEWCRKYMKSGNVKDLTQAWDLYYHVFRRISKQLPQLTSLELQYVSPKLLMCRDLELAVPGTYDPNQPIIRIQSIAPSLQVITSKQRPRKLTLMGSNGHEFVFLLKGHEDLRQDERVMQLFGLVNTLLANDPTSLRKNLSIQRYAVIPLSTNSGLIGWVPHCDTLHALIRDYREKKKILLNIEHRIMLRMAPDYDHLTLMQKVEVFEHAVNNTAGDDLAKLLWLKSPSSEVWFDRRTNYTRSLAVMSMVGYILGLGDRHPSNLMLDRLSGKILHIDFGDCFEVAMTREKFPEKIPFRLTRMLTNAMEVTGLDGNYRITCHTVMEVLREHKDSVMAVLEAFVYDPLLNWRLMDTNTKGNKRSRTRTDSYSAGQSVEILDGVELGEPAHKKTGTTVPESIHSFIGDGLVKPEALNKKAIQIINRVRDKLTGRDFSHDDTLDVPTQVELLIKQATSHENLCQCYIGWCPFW
In short: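 mTOR (0.5 nM final) phosphorylated GFP-4EBP1 (400 nM final) with ATP (8 μM final) at rt in 50 mM HEPES pH 7.5, 10 mM MnCl2, 50 mM NaCl, 1 mM EGTA, 1 mM DTT. EDTA stop with Tb3+-anti-p4EBP1 [pThr46] antibody (0.5 nM); TR-FRET read 15 min later.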

[1] = system: PKB Ser473 phosphorylation in Rat1-myr-HA-p110 alpha cells; experiment: Reverse protein array assay, PKB Ser473 phosphorylation in Rat1-myr-p110 alpha cells; type: cell-based; conditions: 0.5 h, pAkt Ser473, 30 minutes compound incubation, read-out: p-PKB IC50
In short: (§1)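 Cells: Rat1-myr-HA-p110 alpha/beta/delta, seeded ≥20 h. Lysis on ice 10 min; reverse-phase protein array, 4 lysate dilutions; fluorescence read, relative intensity.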

[2] = system: PKB Ser473 phosphorylation in Rat1-myr-HA-p110 beta cells; experiment: Reverse protein array assay, PKB Ser473 phosphorylation in Rat1-myr-p110 beta cells; type: cell-based; conditions: 0.5 h, pAkt Ser473, 30 minutes incubation, read-out: p-PKB IC50
In short: as §1

[3] = system: PKB Ser473 phosphorylation in Rat1-myr-HA-p110 delta cells; experiment: Reverse protein array assay, PKB Ser473 phosphorylation in Rat1-myr-p110 delta cells; type: cell-based; conditions: read-out: p-PKB IC50
In short: as §1

[4] = system: S6 Ribosomal Protein phosphorylation Ser235/236 in TSC1 null mouse embryo fibroblast (MEF) cells; experiment: Reverse protein array assay, S6 Ribosomal Protein phosphorylation Ser235/236 in TSC1 null MEF cells; type: cell-based; conditions: 1 h, pS6 ribosomal protein Ser235/236, 60 minutes incubation, read-out: p-S6 IC50
In short: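 TSC1−/− MEFs, seeded and held ≥20 h at 37 °C/5% CO2, were exposed to 8-step serial compound dilutions (0.02% DMSO final; DMSO vehicle control) for 60 min at 37 °C. Cells were then lysed on ice for 10 min and lysates spotted onto reverse protein array chips.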

[5] = pH 6.8, aqueous buffer, thermodynamic from solid, read-out: solubility

Row | solubility (Solubility at pH 6.8; [5]) | IC50 (PI3K alpha) | IC50 (PI3K delta) | IC50 (mTOR) | IC50 [1] | IC50 [2] | IC50 [3] | solubility (Solubility at pH 6.8; pH 6.8) | Compound | IC50 [4]
1 | 10 µg/mL (≈ 22.6 µM) | 55 nM | 72 nM | 22 nM | 12 nM | 16 nM | 43 nM |  | CCN(C)c1ccc(-c2ccc3ncc4c(c3c2)n(-c2cn(CC)nc2C)c(=O)n4C)cn1 [Example 98.3, 8-[6-(Ethyl-methyl-amino)-pyridin-3-yl]-1-(1-ethyl-3-methyl-1H-pyrazol-4-yl)-3-methyl-1,3-dihydro-imidazo[4,5-c]quinolin-2-one] | 
2 | 37 µg/mL (≈ 81.4 µM) | 266 nM |  |  |  |  |  |  | Cc1nn(CC(=O)N(C)C)c(C)c1-n1c(=O)n(C)c2cnc3ccc(-c4ccccc4)cc3c21 [Example 37.4, 2-[3,5-Dimethyl-4-(3-methyl-2-oxo-8-phenyl-2,3-dihydro-imidazo[4,5-c]quinolin-1-yl)-pyrazol-1-yl]-N,N-dimethyl-acetamide] | 844 nM
3 |  |  |  |  | 29 nM | 36 nM | 62 nM | 2 µg/mL (≈ 4.54 µM) | Cc1nn(C)cc1-n1c(=O)n(C)c2cnc3ccc(-c4cnc(N5CCCC5)nc4)cc3c21 [Example 140.2, 1-(1,3-Dimethyl-1H-pyrazol-4-yl)-3-methyl-8-(2-pyrrolidin-1-yl-pyrimidin-5-yl)-1,3-dihydro-imidazo[4,5-c]quinolin-2-one] | 6 nM
4 | 43 µg/mL (≈ 94.4 µM) | 215 nM | 647 nM | 92 nM | 115 nM | 185 nM |  |  | Cc1nn(C)cc1-n1c(=O)n(C)c2cnc3ccc(-c4ccc(N5CC[C@H](O)C5)nc4)cc3c21 [Example 212.2, 1-(1,3-Dimethyl-1H-pyrazol-4-yl)-8-[6-((S)-3-hydroxy-pyrrolidin-1-yl)-pyridin-3-yl]-3-methyl-1,3-dihydro-imidazo[4,5-c]quinolin-2-one] | 
5 | 74 µg/mL (≈ 168 µM) | 785 nM | 386 nM | 494 nM | 330 nM |  |  |  | Cc1nn(C)cc1-n1c(=O)n(C)c2cnc3ccc(-c4ccnc(N(C)C(C)C)c4)cc3c21 [Example 130, 1-(1,3-Dimethyl-1H-pyrazol-4-yl)-8-[2-(isopropyl-methyl-amino)-pyridin-4-yl]-3-methyl-1,3-dihydro-imidazo[4,5-c]quinolin-2-one] | 
6 | 75 µg/mL (≈ 165 µM) | 118 nM | 101 nM | 30 nM | 10 nM | 18 nM | 59 nM |  | CCN(C)c1ccc(-c2ccc3ncc4c(c3c2)n(-c2cn(C(C)C)nc2C)c(=O)n4C)cn1 [Example 98.2, 8-[6-(Ethyl-methyl-amino)-pyridin-3-yl]-1-(1-isopropyl-3-methyl-1H-pyrazol-4-yl)-3-methyl-1,3-dihydro-imidazo[4,5-c]quinolin-2-one] | 
7 | 41 µg/mL (≈ 93.5 µM) | 173 nM | 372 nM | 160 nM | 337 nM | 417 nM | 530 nM |  | Cc1nn(C)cc1-n1c(=O)n(C)c2cnc3ccc(-c4cnc5c(c4)nc(C)n5C)cc3c21 [Example 73, 8-(2,3-Dimethyl-3H-imidazo[4,5-b]pyridin-6-yl)-1-(1,3-dimethyl-1H-pyrazol-4-yl)-3-methyl-1,3-dihydro-imidazo[4,5-c]quinolin-2-one] | 
8 | 3 µg/mL (≈ 7.51 µM) | 461 nM |  | 505 nM | 134 nM | 121 nM | 547 nM |  | CN(C)c1ccc(-c2ccc3ncc4c(c3c2)n(-c2ccnn2C)c(=O)n4C)cn1 [Example 4.7, 8-(6-Dimethylamino-pyridin-3-yl)-3-methyl-1-(2-methyl-2H-pyrazol-3-yl)-1,3-dihydro-imidazo[4,5-c]quinolin-2-one] | 
9 | 72 µg/mL (≈ 137 µM) | 938 nM | 932 nM | 13 nM |  |  |  |  | CCOc1ccc(-c2ccc3ncc4[nH]c(=O)n(-c5cn(CC(=O)N6CCN(C)CC6)nc5C)c4c3c2)cn1 [Example 133, 8-(6-Ethoxy-pyridin-3-yl)-1-{3-methyl-1-[2-(4-methyl-piperazin-1-yl)-2-oxo-ethyl]-1H-pyrazol-4-yl}-1,3-dihydro-imidazo[4,5-c]quinolin-2-one] | 508 nM
10 | > 485 µg/mL |  |  |  | 371 nM | 995 nM | 895 nM |  | CCNC(=O)c1cc(-c2ccc3ncc4c(c3c2)n(-c2c(C)nn(C)c2C)c(=O)n4C)cnc1NC [Example 242.2, N-Ethyl-2-methylamino-5-[3-methyl-2-oxo-1-(1,3,5-trimethyl-1H-pyrazol-4-yl)-2,3-dihydro-1H-imidazo[4,5-c]quinolin-8-yl]-nicotinamide] | 88 nM
11 |  |  |  |  | 166 nM | 171 nM | 298 nM | 2 µg/mL (≈ 4.4 µM) | Cc1nn(C)cc1-n1c(=O)n(C)c2cnc3ccc(-c4cnc5c(c4)n(C)c(=O)n5C)cc3c21 [Example 67, 8-(1,3-Dimethyl-2-oxo-2,3-dihydro-1H-imidazo[4,5-b]pyridin-6-yl)-1-(1,3-dimethyl-1H-pyrazol-4-yl)-3-methyl-1,3-dihydro-imidazo[4,5-c]quinolin-2-one] | 
12 | 14 µg/mL (≈ 28.4 µM) | 110 nM | 362 nM |  | 17 nM |  | 516 nM |  | COCCn1nc(C)c(-n2c(=O)n(C)c3cnc4ccc(-c5ccc(-n6cccn6)cc5)cc4c32)c1C [Example 51.5] | 25 nM
13 | 18 µg/mL (≈ 42.4 µM) | 210 nM | 167 nM | 734 nM | 589 nM |  |  |  | Cn1nccc1-n1c(=O)n(C)c2cnc3ccc(-c4ccc(C(F)(F)F)nc4)cc3c21 [Example 8.1, 3-Methyl-1-(2-methyl-2H-pyrazol-3-yl)-8-(6-trifluoromethyl-pyridin-3-yl)-1,3-dihydro-imidazo[4,5-c]quinolin-2-one] | 
14 | 14 µg/mL (≈ 31.1 µM) |  |  | < 3 nM | 10 nM | 6 nM | 7 nM |  | COCc1cc(-c2ccc3ncc4c(c3c2)n(-c2cn(C)nc2Cl)c(=O)n4C)cnc1N [Example 168.3, 8-(6-Amino-5-methoxymethyl-pyridin-3-yl)-1-(3-chloro-1-methyl-1H pyrazol-4-yl)-3-methyl-1,3-dihydro-imidazo[4,5-c]quinolin-2-one] | < 0.5 nM
15 | 61 µg/mL (≈ 165 µM) |  |  |  | 303 nM | 725 nM |  |  | Cc1nn(C)cc1-n1c(=O)n(C)c2cnc3ccc(-c4ccccn4)cc3c21 [Example 114, 1-(1,3-Dimethyl-1H-pyrazol-4-yl)-3-methyl-8-pyridin-2-yl-1,3-dihydro-imidazo[4,5-c]quinolin-2-one] | 
16 | 21 µg/mL (≈ 46.8 µM) |  |  | 7 nM | 13 nM | 16 nM | 22 nM |  | Cn1cc(-n2c(=O)n(C)c3cnc4ccc(-c5cncc(C(C)(C)O)c5)cc4c32)c(Cl)n1 [Example 215.3, 1-(3-Chloro-1-methyl-1H-pyrazol-4-yl)-8-[5-(1-hydroxy-1-methyl-ethyl)-pyridin-3-yl]-3-methyl-1,3-dihydroimidazo[4,5-c]quinolin-2-one] | 1 nM
17 | 8 µg/mL (≈ 17.5 µM) |  |  | 56 nM | < 5 nM | 34 nM | 27 nM |  | CCc1ncc(-c2ccc3ncc4c(c3c2)n(-c2cn(C)nc2C)c(=O)n4C)cc1OC(C)C [Example 186, 1-(1,3-Dimethyl-1H-pyrazol-4-yl)-8-(6-ethyl-5-isopropoxy-pyridin-3-yl)-3-methyl-1,3-dihydro-imidazo[4,5-c]quinolin-2-one] | 1.02 nM
